Values after ≈ are worked out from the molar mass of the structure shown.
Legend:
[1] = test system: Mycobacterium tuberculosis; assay: Bactericidal activity against Mycobacterium tuberculosis H37Rv ATCC 27294 assessed as concentration required for 2 log kill after 21 days under aerobic condition by colony forming assay; type: functional; conditions: for MBC: H37Rv ATCC 27294, 504 h
[2] = test system: Mycobacterium tuberculosis; assay: Antitubercular activity against Mycobacterium tuberculosis H37Rv ATCC 27294 after 5 days under aerobic condition; type: functional, organism-based; conditions: for IC50 / IC90 / MIC: H37Rv ATCC 27294, 120 h
[3] = test system: Mycobacterium tuberculosis; assay: Antitubercular activity against luxABCDE expressing Mycobacterium tuberculosis H37Rv infected in human THP1 cells measured after 3 days by luminescence assay; type: functional, organism-based; conditions: THP-1, 72 h
Vero = assay: Cytotoxicity against African green monkey Vero cells after 2 days by CellTiter-Glo luminescent cell viability assay; type: ADME, cell-based; conditions: Chlorocebus sabaeus, 48 h
[4] = test system: Mycobacterium tuberculosis; assay: Antitubercular activity against Mycobacterium tuberculosis H37Rv ATCC 27294 after 10 days under low oxygen condition followed by incubation under aerobic condition for 28 hrs by LORA; type: functional, organism-based
L6 = assay: Cytotoxicity against rat L6 cells after 2 days by CellTiter-Glo luminescent cell viability assay; type: ADME, cell-based; conditions: L6, 48 h
[5] = Solubility of compound in Middlebrook 7H9 broth media at pH 6.4 at 200 uM after 90 mins by UV-VIS spectrophotometric method; type: physicochemical; conditions: buffer, pH 6.4, 1.5 h
THP-1 = assay: Cytotoxicity against human THP1 cells after 3 days by luminescence assay; type: cell-based; conditions: THP-1, 72 h
HepG2 = assay: Cytotoxicity against human HepG2 cells at 100 uM after 3 days by CellTiter-Glo luminescent cell viability assay; type: cell-based; conditions: HepG2, 72 h

## O=C(Cn1cnc([N+](=O)[O-])n1)N1CCN(C(c2ccccc2)c2ccc(Cl)cc2)CC1 (centres undefined)
[1]
  MBC: 100 µM (≈ 44.1 µg/mL)
[2]
  IC50: 38 µM
  IC90: 48 µM
  MIC: 50 µM (≈ 22 µg/mL)
[3]
  IC50: 8 µM
  IC90: 11 µM
Vero
  IC50: 21 µM
[4]
  IC50: 51 µM
  IC90: 57 µM
  MIC: 65 µM (≈ 28.7 µg/mL)
L6
  IC50: 32 µM

## Cc1ncc([N+](=O)[O-])n1CCO [METRONIDAZOLE]
[2]
  IC50: > 200 µM
  IC90: > 200 µM
  MIC: > 200 µM
[4]
  IC50: 14 to 36 µM
  IC90: 33 to 82 µM
  MIC: 88 to 200 µM (≈ 15.1 to 34.2 µg/mL)

## Cc1nc([N+](=O)[O-])cn1CCCNC(=O)c1sc2ccccc2c1Cl
[2]
  IC50: 175 µM
  IC90: > 200 µM
  MIC: > 200 µM
[5]
  solubility: Soluble

## O=C(CCn1cnc([N+](=O)[O-])n1)Nc1ccc(Oc2ccccc2)cc1
THP-1
  IC50: 33 µM
[1]
  MBC: 20 µM (≈ 7.07 µg/mL)
[1]; TDE = time-dependent effect
  Activity: Tde
[2]
  IC50: 28 to 32 µM
  IC90: 39 to 45 µM
  MIC: 48 µM (≈ 17 µg/mL)
[2]; TDE = time-dependent effect
  Activity: Tde
[3]
  IC50: 5 µM
  IC90: 17 µM
[4]
  IC50: 32 µM
  IC90: 49 µM
  MIC: 81 µM (≈ 28.6 µg/mL)
L6
  IC50: 32 µM

## O=C(CCn1cnc([N+](=O)[O-])n1)Nc1cc(-c2ccc(F)cc2)on1
[2]
  IC50: 66 µM
  IC90: > 100 µM
  MIC: > 200 µM

## O=C(Cn1cnc([N+](=O)[O-])n1)Nc1ccc(Cc2ccccc2)cc1
THP-1
  IC50: 47 µM
[1]
  MBC: 20 µM (≈ 6.75 µg/mL)
[2]
  IC50: 30 µM
  IC90: 38 µM
  MIC: 45 µM (≈ 15.2 µg/mL)
[3]
  IC50: 6.2 µM
  IC90: 12 µM
[4]
  IC50: 39 µM
  IC90: 59 µM
  MIC: 94 µM (≈ 31.7 µg/mL)

## O=C(Cn1cnc([N+](=O)[O-])n1)Nc1cc(-c2ccc(Cl)cc2)no1
[2]
  IC50: 96 µM
  IC90: 140 µM
  MIC: 200 µM (≈ 69.7 µg/mL)

## O=C(CCCN1CCC(O)(c2ccc(Cl)cc2)CC1)c1ccc(F)cc1 [HALOPERIDOL]
[5]
  solubility: Insoluble

## O=C(Cn1cnc([N+](=O)[O-])n1)Nc1nc(-c2ccc(Cl)cc2)cs1
[2]
  IC50: 34.2 µM
  IC90: 34.9 µM
  MIC: 34.9 µM (≈ 12.7 µg/mL)
[5]
  solubility: Insoluble

## CN[C@@H]1C[C@H]2O[C@@](C)([C@@H]1OC)n1c3ccccc3c3c4c(c5c6ccccc6n2c5c31)C(=O)NC4 [STAUROSPORINE]
HepG2
  IC50: 0.018 µM

## CO[C@H]1/C=C/O[C@@]2(C)Oc3c(C)c(O)c4c(O)c(c(/C=N/N5CCN(C)CC5)c(O)c4c3C2=O)NC(=O)/C(C)=C\C=C\[C@H](C)[C@H](O)[C@@H](C)[C@@H](O)[C@@H](C)[C@H](OC(C)=O)[C@@H]1C [RIFAMPIN]
[2]
  IC50: 0.0046 to 0.0061 µM
  IC90: 0.0049 to 0.014 µM
  MIC: 0.015 to 0.033 µM (≈ 0.0123 to 0.0272 µg/mL)
[4]
  IC50: 0.00072 to 0.015 µM
  IC90: 0.0037 to 0.049 µM
  MIC: 0.022 to 0.18 µM (≈ 0.0181 to 0.148 µg/mL)

## Cc1ccoc1C(=O)NCCCn1cnc([N+](=O)[O-])n1
[2]
  IC50: 41 µM
  IC90: 54 µM
  MIC: 54.5 µM (≈ 15.2 µg/mL)
[5]
  solubility: Soluble

## N#Cc1ccc(-c2ccc(NC(=O)Cn3cnc([N+](=O)[O-])n3)cc2)cc1
[2]
  IC50: > 200 µM
  IC90: > 200 µM
  MIC: > 200 µM
[4]
  MIC: 52.1 µM (≈ 18.1 µg/mL)

## CC(O)(Cn1cnc([N+](=O)[O-])n1)c1ccc(-c2ccc(C#N)cc2)cc1 (centres undefined)
[1]
  MBC: 100 µM (≈ 34.9 µg/mL)
[2]
  IC50: 55 µM
  IC90: 125 µM
  MIC: > 200 µM
Vero
  IC50: 66 µM
[4]
  IC50: 73 µM
  IC90: 176 µM
  MIC: > 200 µM
L6
  IC50: 86 µM

## O=C(NCCCn1cnc([N+](=O)[O-])n1)c1cc2ccccc2s1
[2]
  IC50: 107 µM
  IC90: > 200 µM
  MIC: > 200 µM
[5]
  solubility: Insoluble

## Cc1nc([N+](=O)[O-])cn1CCCNC(=O)c1cc2ccccc2s1
[2]
  IC50: > 200 µM
  IC90: > 200 µM
  MIC: > 200 µM
[5]
  solubility: Soluble

## CC(=O)N1CCN(c2ccc(OCC3COC(Cn4ccnc4)(c4ccc(Cl)cc4Cl)O3)cc2)CC1 (centres undefined) [KETOCONAZOLE]
[5]
  solubility: Insoluble

## COCCc1ccc(OCC(O)CNC(C)C)cc1.COCCc1ccc(OCC(O)CNC(C)C)cc1.O=C(O)/C=C/C(=O)O (racemic) [METOPROLOL FUMARATE]
[5]
  solubility: Soluble

— ChEMBL document CHEMBL4177599, “The antitubercular activity of various nitro(triazole/imidazole)-based compounds” (Bioorg Med Chem, 2017)
